From PubChem BioAssay (NCI)
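Briefly, cells in 96-well plates were exposed to five compound concentrations for 48 h, and endpoints were estimated by linear interpolation. At the GI50, growth is halved. TGI: total growth inhibition.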

What was measured:
Assay in all cases: DTP human tumour cell line panel, 48 h
[1] = tested on: SK-MEL-28 melanoma
[2] = tested on: SNB-19 CNS
[3] = tested on: A549 NSCLC
[4] = tested on: MCF7 breast
[5] = tested on: MDA-MB-435
[6] = tested on: OVCAR-8 ovarian
[7] = tested on: A498 renal
[8] = tested on: PC-3 prostate
[9] = tested on: NCI-H23 lung
[10] = tested on: NCI/ADR-RES ovarian

| Structure (SMILES) | GI50 [1] [µM] | TGI [1] [µM] | GI50 [2] [µM] | TGI [2] [µM] | GI50 [3] [µM] | TGI [3] [µM] | GI50 [4] [µM] | TGI [4] [µM] | GI50 [5] [µM] | TGI [5] [µM] | GI50 [6] [µM] | TGI [6] [µM] | GI50 [7] [µM] | TGI [7] [µM] | GI50 [8] [µM] | TGI [8] [µM] | GI50 [9] [µM] | TGI [9] [µM] | GI50 [10] [µM] | TGI [10] [µM] |
| --- | --- | --- | --- | --- | --- | --- | --- | --- | --- | --- | --- | --- | --- | --- | --- | --- | --- | --- | --- | --- |
| COc1ccc2c(c1)/C(=N/OC(C)=O)c1c-2c(=O)[nH]c2ccccc12 | 12.7 | 26.6 | 15.3 | 40.4 | 15.8 | 31.3 | 66.3 | > 100 | 17.3 | 34.5 | 14.7 | 31.8 | 7.45 | 32.4 | 11.8 | 26 | 2.34 | 16.2 | 2.83 | 17.9 |
| NC1=Nc2cc(OCCCN3Cc4ccccc4C3)c(OCC3CC3)cc2C12CCCC2 | 1.84 | 3.46 | 4.53 | 16.4 | 3.99 | 13.5 | 1.8 | 4.03 | 1.8 | 3.66 | 3.71 | 13.9 | 4.48 | 18.1 | 2.66 | 12.7 | 3.61 | 12.9 | 2.91 | 12 |
| NS(=O)(=O)c1ccc(NC(=O)c2cccc3cc4ccccc4nc23)cc1 | – | > 100 | – | > 100 | – | > 100 | – | > 100 | – | > 100 | – | > 100 | – | > 100 | – | > 100 | – | > 100 | – | > 100 |
| O=C(O)C1CCCCC1c1c2ccc(=O)cc-2oc2cc(O)ccc12 (stereo not given) | – | > 100 | – | > 100 | – | > 100 | – | > 100 | – | 49.3 | – | 90.8 | – | > 100 | – | > 100 | – | > 100 | – | > 100 |
| Cn1c(=O)c(Oc2ccccc2)cc2cnc(NC3CCOCC3)nc21 | > 25 | > 25 | > 25 | > 25 | > 25 | > 25 | > 25 | > 25 | > 25 | > 25 | > 25 | > 25 | > 25 | > 25 | > 25 | > 25 | > 25 | > 25 | > 25 | > 25 |
| CS(=O)(=O)OCCN(CCOS(C)(=O)=O)c1ccc(C=O)cc1 | – | 52.6 | – | 65.5 | – | 35.8 | – | > 75.9 | – | 24.6 | – | 32.4 | – | 4.43 | – | 86 | – | 12.6 | – | > 80.8 |
| COc1ccc2c(c1)C1(C(=O)N2)C(C#N)=C(c2ccccc2)Nc2c1c(-c1ccccc1)nn2-c1ccccc1 (stereo not given) | 2.21 | 5.4 | 3.95 | 15 | 2.49 | 5.55 | 2.09 | 6.79 | 2.16 | 5.29 | 3.54 | 12.7 | 1.61 | 4.35 | 1.98 | 3.67 | 2.51 | 7.51 | 31.9 | > 100 |
| COc1ccc(N(C)c2c3ccccc3nc3[nH]c4ccccc4c23)cc1 | 3.86 | 21.8 | 0.634 | 5.62 | 0.724 | 9.19 | 0.168 | 0.655 | 1.12 | 3.22 | 0.798 | 7.42 | 0.939 | 2.61 | 0.424 | 2.63 | 0.702 | 2.04 | 2.95 | 9.91 |
| CNCCCNCCCN1C(=O)c2ccc3c4c(ccc(c24)C1=O)C(=O)N(CCCNCc1ccccc1OC)C3=O | 1.01 | 2.79 | 1.68 | 11.1 | 0.577 | 4.97 | 0.512 | 3.21 | 1.07 | 2.91 | 0.797 | 9.43 | 1.54 | 8.91 | 1.6 | 10.1 | 1.26 | 4.12 | 12.1 | 71.1 |
